Assays:
[1] = system: A549 cells; assay: cells; assay type: cell-based, Human; conditions: 24 h exposure, WST assay
Experimental: Human adenocarcinomic alveolar epithelial (A549) cells were obtained from the Korea Cell Line Bank (Seoul, Korea). Cells were grown in RPMI 1640 medium (Thermo Fisher Scientific, Waltham, MA, USA), containing 10% heat-inactivated fetal bovine serum (Thermo Fisher Scientific, Waltham, MA, USA) and 1% penicillin-streptomycin (Thermo Fisher Scientific, Waltham, MA, USA) under standard cell culture conditions (37 °C, 5% CO2, and 90% humidity).
A549 cells (1 × 10^4 cells) were incubated in 96-well plates overnight, and various concentrations (1, 10, 100, 1000, and 5000 μg/mL) of the eight selected chemicals were added to the cell culture medium. After 24 h of incubation, cell morphology was observed by optical microscopy, and cell viability was evaluated using EZ-Cytox kit (DoGenBio, Seoul, Korea) by quantifying purple formazan crystals. The membrane integrity was examined using an EZ-lactate dehydrogenase (LDH) kit (DoGenBio, Seoul, Korea) to measure the LDH level released from the cytosol into the culture medium. Absorbance was measured using a microplate reader (Tecan, Salzburg, Austria) at a wavelength of 450 nm.

[2] = system: A549 cells; assay: Colony formation (clonogenic) assay; assay type: cell-based, Human; conditions: 10 days
Experimental: A clonogenic assay was performed by modifying the method of Franken et al.. Briefly, the cells were incubated overnight in six-well plates, at a density of 200 cells per well. DGH (0.00313, 0.00625, 0.0125, 0.025, 0.05, 0.1, and 0.2 μg/mL) and CGP (0.313, 0.625, 1.25, 2.5, 5, 10, and 20 μg/mL) were incubated with the cells for ten days. After incubation, the medium was removed, the cells were washed with phosphate-buffered saline (PBS), fixed with methanol for 10 min on ice, and stained with crystal violet (0.5% crystal violet in 20% methanol). The number of colonies was quantified using light microscopy (Olympus Co., Tokyo, Japan).

[3] = system: Sprague-Dawley (SD) rats; assay: Histopathology of nasal cavity and lung after acute inhalation; assay type: in vivo, rat; conditions: High 68 mg/m^3, 4 h; for Lung: Cell infiltration, terminal bronchiole/alveolar duct, neutrophils/macrophages / Lung: Intraluminal cell debris, terminal bronchiole/alveolar duct / Lung: No specific lesion / Nasal cavity Level 1: Acute inflammation with necrosis, focal / Nasal cavity Level 1: Cell infiltration, lymphocytes, focal / Nasal cavity Level 1: No specific lesion / Nasal cavity Level 2: Acute inflammation with necrosis, focal / Nasal cavity Level 2: Cell infiltration, lymphocytes, focal / Nasal cavity Level 2: No specific lesion / Nasal cavity Level 3: Cell infiltration, lymphocytes, focal / Nasal cavity Level 3: No specific lesion / Nasal cavity Level 4: Cell infiltration, lymphocytes, focal / Nasal cavity Level 4: No specific lesion: cases (percentage) of 5 examined; for Lung: Cell infiltration, terminal bronchiole/alveolar duct, neutrophils/macrophages; Grade: minimal / Lung: Intraluminal cell debris, terminal bronchiole/alveolar duct; Grades: minimal / Nasal cavity Level 1: Acute inflammation with necrosis, focal; Grade: mild / Nasal cavity Level 1: Acute inflammation with necrosis, focal; Grade: minimal / Nasal cavity Level 1: Cell infiltration, lymphocytes, focal; Grade: minimal / Nasal cavity Level 2: Acute inflammation with necrosis, focal; Grade: mild / Nasal cavity Level 2: Acute inflammation with necrosis, focal; Grade: minimal / Nasal cavity Level 2: Cell infiltration, lymphocytes, focal; Grade: minimal / Nasal cavity Level 3: Cell infiltration, lymphocytes, focal; Grade: minimal / Nasal cavity Level 4: Cell infiltration, lymphocytes, focal; Grade: minimal: number of cases
Experimental: The inhalation aerosols of the DGH solutions were generated using an atomizer with a clean air flow of 250 L/min. For the acute inhalation exposure study, the rats were exposed to 7.8 mg/m^3, 23 mg/m^3, and 70 mg/m^3 DGH for 4 h in the low, middle, and high exposure groups, respectively, and the control rats were exposed to clean air. In the acute toxicity test, all the rats in each group were sacrificed immediately after exposure. Temperature, humidity, air flow, and air pressure were monitored during the exposure using a Model VT3-X15 environmental controller (Sibata, Saitama, Japan). The concentration of DGH was analyzed by sampling the chamber air using a SIP-32L (Sibata, Saitama, Japan) and measuring the weight of the membranes (T60A20, Φ55). The mass median aerodynamic diameter (MMAD) and geometric standard deviation (GSD) of DGH in the exposure chamber were measured using an Andersen cascade impactor (AN-200, Sibata, Saitama, Japan).
After the inhalation of DGH for 4 h, the animals were euthanized. After gross examination, the left lung and nasal cavity of the rats in the control and high-exposure groups were fixed in 10% neutral buffered formalin. The nasal cavity was decalcified with a decalcification solution and then cross-sectioned into four levels as follows: level 1 (posterior part of the upper incisors), level 2 (incisive papilla), level 3 (second palatine crest), level 4 (first upper molar teeth). Following routine tissue processing, the tissues were embedded in paraffin and sectioned into 3 μm thick sections. The tissue sections were stained with hematoxylin and eosin (H&E), and then examined under a light microscope (Olympus BX41, Tokyo, Japan). The lesions were graded according to severity by pathologists.

## CCCCCCCCCCCCN=C(N)N.Cl [DGH, Dodecylguanidine hydrochloride]
[1]
  IC50 (half inhibitory concentration by cell viability assay): 0.39 µg/mL
[2]; DGH 0.00313–0.2 μg/mL, CGP 0.313–20 μg/mL
  Total number of colonies: dramatic decrease
[2]; DGH 0.025 μg/mL
  Reduction in colony formation compared to the control: approximately 50%
[3]; female
  Lung: Cell infiltration, terminal bronchiole/alveolar duct, neutrophils/macrophages: 3(60.0)
  Lung: Intraluminal cell debris, terminal bronchiole/alveolar duct: 1(20.0)
  Lung: No specific lesion: 1(20.0)
  Nasal cavity Level 1: Acute inflammation with necrosis, focal: 1(20.0)
  Nasal cavity Level 1: Cell infiltration, lymphocytes, focal: 0(0.00)
  Nasal cavity Level 1: No specific lesion: 4(80.0)
  Nasal cavity Level 2: Acute inflammation with necrosis, focal: 0(0.00)
  Nasal cavity Level 2: Cell infiltration, lymphocytes, focal: 0(0.00)
  Nasal cavity Level 2: No specific lesion: 5(100)
  Nasal cavity Level 3: Cell infiltration, lymphocytes, focal: 1(20.0)
  Nasal cavity Level 3: No specific lesion: 4(80.0)
  Nasal cavity Level 4: Cell infiltration, lymphocytes, focal: 2(40.0)
  Nasal cavity Level 4: No specific lesion: 3(60.0)
  Lung: Cell infiltration, terminal bronchiole/alveolar duct, neutrophils/macrophages; Grade: minimal: 3
  Lung: Intraluminal cell debris, terminal bronchiole/alveolar duct; Grades: minimal: 1
  Nasal cavity Level 1: Acute inflammation with necrosis, focal; Grade: mild: 0
  Nasal cavity Level 1: Acute inflammation with necrosis, focal; Grade: minimal: 1
  Nasal cavity Level 1: Cell infiltration, lymphocytes, focal; Grade: minimal: 0
  Nasal cavity Level 2: Acute inflammation with necrosis, focal; Grade: mild: 0
  Nasal cavity Level 2: Acute inflammation with necrosis, focal; Grade: minimal: 0
  Nasal cavity Level 2: Cell infiltration, lymphocytes, focal; Grade: minimal: 0
  Nasal cavity Level 3: Cell infiltration, lymphocytes, focal; Grade: minimal: 1
  Nasal cavity Level 4: Cell infiltration, lymphocytes, focal; Grade: minimal: 2
[3]; male
  Lung: Cell infiltration, terminal bronchiole/alveolar duct, neutrophils/macrophages: 5(100)
  Lung: Intraluminal cell debris, terminal bronchiole/alveolar duct: 1(20.0)
  Lung: No specific lesion: 0(0.00)
  Nasal cavity Level 1: Acute inflammation with necrosis, focal: 1(20.0)
  Nasal cavity Level 1: Cell infiltration, lymphocytes, focal: 0(0.00)
  Nasal cavity Level 1: No specific lesion: 4(80.0)
  Nasal cavity Level 2: Acute inflammation with necrosis, focal: 1(20.0)
  Nasal cavity Level 2: Cell infiltration, lymphocytes, focal: 0(0.00)
  Nasal cavity Level 2: No specific lesion: 4(80.0)
  Nasal cavity Level 3: Cell infiltration, lymphocytes, focal: 2(40.0)
  Nasal cavity Level 3: No specific lesion: 3(60.0)
  Nasal cavity Level 4: Cell infiltration, lymphocytes, focal: 0(0.00)
  Nasal cavity Level 4: No specific lesion: 5(100)
  Lung: Cell infiltration, terminal bronchiole/alveolar duct, neutrophils/macrophages; Grade: minimal: 5
  Lung: Intraluminal cell debris, terminal bronchiole/alveolar duct; Grades: minimal: 1
  Nasal cavity Level 1: Acute inflammation with necrosis, focal; Grade: mild: 1
  Nasal cavity Level 1: Acute inflammation with necrosis, focal; Grade: minimal: 0
  Nasal cavity Level 1: Cell infiltration, lymphocytes, focal; Grade: minimal: 0
  Nasal cavity Level 2: Acute inflammation with necrosis, focal; Grade: mild: 1
  Nasal cavity Level 2: Acute inflammation with necrosis, focal; Grade: minimal: 0
  Nasal cavity Level 2: Cell infiltration, lymphocytes, focal; Grade: minimal: 0
  Nasal cavity Level 3: Cell infiltration, lymphocytes, focal; Grade: minimal: 2
  Nasal cavity Level 4: Cell infiltration, lymphocytes, focal; Grade: minimal: 0
